Publication PMC5855688, “BC-Box Motif-Mediated Neuronal Differentiation of Somatic Stem Cells” (International Journal of Molecular Sciences, 2018)
Entries after “also recorded” stand apart in the source; their conditions may differ.

Tests used:
[1] = tested on: skin-derived precursors (SKPs); experiment: Neurite outgrowth / morphological evaluation of neuronal differentiation; assay type: cell-based, rat (neonate Wistar)
Method: (§1) Rodent skin-derived precursor cells (SKPs), which can differentiate to neurons, were used. SKPs were previously isolated from the back dermis of neonate Wistar rats by the authors. These cells were cultured in growth medium composed of DMEM/F12 (1:1; Gibco, Grand Island, NY, USA) containing 2% B27 supplement (Gibco), 20 ng/mL epidermal growth factor (EGF; Upstate Biotechnology, Lake Placid, NY, USA), and 40 ng/mL bFGF (PeproTech EC Ltd., Rocky Hill, NJ, USA) in a humidified incubator at 37 °C with 5% CO2. The floating clusters of cultured cells were centrifuged and dissociated into a single-cell suspension by use of a Pasteur pipette with a flame-polished tip. These single cells were then re-suspended into at a concentration of 50,000 cells/mL for passage or experiments.
(§2) For neuronal differentiation, cells were dissociated into a single-cell suspension by use of a Pasteur pipette and re-suspended into a concentration of 50,000 cells/mL in DMEM/F12 without serum, neurotrophic factors or growth factors. Then, the cells were cultured on poly-L-lysine-coated dishes or cover glasses, and the synthesized peptides at concentrations from 1 to 5 μM were added to the culture medium and delivered into the cells. Three days or more later, the cells were used for morphological, immunocytochemical, immunohistochemical, electrophysiological and immunoprecipitation studies, as well as for Western blot analysis.
Neurite outgrowth with length exceeding the diameter of the neuronal soma is often assessed as a morphological index of neuronal differentiation. After a single-cell suspension was made by pipetting, the cells were cultured in DMEN/F12 medium alone at 37 °C in a 5% CO2 incubator. Thereafter, neurite outgrowth was evaluated with the following 4 levels: +++, for above 50% of the cells showing neurite outgrowth; ++, for 20–50% with neurite outgrowth; +, for 5–19% having neurite outgrowth; and −, for below 5% of the cells with neurite outgrowth.

[2] = tested on: skin-derived precursors (SKPs); experiment: Immunocytochemistry with anti-Neurofilament-H (NFH) antibody; assay type: cell-based, rat (neonate Wistar); details: immunocytochemistry, peptides at 1 to 5 μM; mean ± SEM; vs VHL(157–171): p < 0.01 for VHL(157–168), p < 0.005 for TAT
Method: as §1, §2
Cultured cells were fixed with 4% paraformaldehyde in PBS (Phosphate buffered saline) for 10 min at room temperature. Cells were incubated for 1 h at room temperature with primary antibodies. Antibodies against anti-MAP2 antibody (Sigma-Aldrich, St. Louis, MO, USA), anti-Neurofilment-H (NFH) antibody (Sigma-Aldrich), anti-NeuN antibody (Merk Millipore, Billerica, MA, USA), anti-GFAP antibody (DAKO, Santa Clara, CA, USA), anti-tyrosine hydroxylase (TH) antibody (Merk Millipore, Billerica, MA, USA), anti-choline acetyl transferase (ChAT) antibody (Abbiotec, San Diego, CA, USA), anti-glutamic acid decaboxylase (GAD) antibody (Enzo Life Sciences, Flamingdale, NY, USA), and anti-rhodopsin antibody (Santa Cruz, San Diego, CA, USA) were used. […] Nuclear counterstaining was done with DAPI (Molecular Probes, Eugene, OR, USA) or TO-PRO-3 (Molecular Probes), and observations were made with a fluorescence microscope system (FV300, Olympus, Tokyo, Japan). We counted the number of immuno-positive cells with a given antibody in 4 to 6 random non-overlapping visual fields (50–200 cells per field) in each experiment. […] The degree of positivity was expressed as the rate of immuno-positive cells to the total number of nuclei stained with DAP1 or TO-PRO-3.

JAK2 [3] = experiment: Ubiquitination assay (IP anti-JAK2, IB anti-ubiquitin); assay type: biochemical, rat; details: incubation 4 h with ubiquitin, E1, E2 and peptide; vs no peptide or TAT, p < 0.001; Figure 5A
Method: We asked whether VHL(157–171) peptide-mediated neuronal differentiation was related to ubiquitination or not. […] After incubation for 4 h, cultured cells (1 × 10^6) were washed with ice-cold PBS and lysed in RIPA lysis buffer (Upstate, Charlottesville, VA, USA). The total protein was extracted from the cells, and the lysates were immunoprecipitated with anti-JAK2 antibody (Santa Cruz, San Diego, CA, USA) by using Protein A/G Sepharose (abcam, Cambridge, MA, USA). The immunoprecipitates were supplemented with 1 mM PMSF and the protease inhibitor cocktail. After 2 h, each sample was separated by SDS-PAGE and transferred electrophoretically to nitrocellulose filters. Western blots were probed with anti-ubiquitin antibody (Sigma-Aldrich) followed by horseradish peroxidase-conjugated secondary antibodies (Amersham). Protein bands were detected by using a chemical luminescence detection system (Amersham). Images were analyzed with LAS-1000 (Fujifilm).

JAK2 [4] = experiment: Western blotting of JAK2 before and after peptide treatment; assay type: cell-based, rat; details: Western blot, Figure 5B, p < 0.01
[5] = tested on: skin-derived precursors (SKPs); experiment: Western blot analysis of neuronal markers in NDD peptide-treated cells; assay type: cell-based, rat (neonate Wistar); details: Figure 6A
Method: as §1, §2
Cultured cells were washed 3 times in cold PBS and then scraped into ice-cold PBS. After incubation on ice for 10 min, the cells were lysed with lysis buffer and centrifuged, after which the supernatants were collected. Each sample was separated by SDS-PAGE under reducing conditions and transferred electrophoretically to nitrocellulose filters. Non-specific binding of antibody was blocked by incubation with 5% donkey serum for 1 h. Western blots were probed with anti-MAP2 antibody, anti-NFH antibody, anti-ChAT antibody, anti-GAD antibody, anti-rhodopsin antibody, anti-TH antibody, and anti-elongin C antibody (Santa Cruz, San Diego, CA, USA) followed by horseradish peroxidase-conjugated secondary antibodies. Protein bands were detected by using a chemical luminescence detection system (ECL Plus Western Blotting Reagent Pack, Amersham, Hemel Hempstead, UK). Images were analyzed with LAS-1000 (Fujifilm, Tokyo, Japan), and the density of the bands was determined by using Image Gauge software (Fujifilm).

Question: What does the source list for “YARAAARQARATLKERCLQVVRSLVK [VHL(157–171), NDD in pVHL: BC-box motif plus five amino acids, conjugated with PTD]”?
Answer: Neurite Outgrowth Activity ([1]; BC-box motif plus five C-terminal amino acids peptides, delivered with TAT PTD, 1 to 5 μM): +++ (above 50% of the cells showing neurite outgrowth); Neurite Outgrowth Activity ([1]; Figure 2A, rates of cells having neurites, peptides at 1 to 5 μM, VHL157–168 vs VHL(157–171) p < 0.005): showed neurite outgrowth activity to the same extent as VHL(155–171); also recorded: greatest of rate of cells having neurites; Percentage of NFH-positive cells [2]: 60.4 ± 6.4%; JAK2 ubiquitination (JAK2 [3]): had activity as an E3 ubiquitin ligase and mediated JAK2 ubiqutination; also recorded: ubiquitination was significantly enhanced; JAK2 degradation (JAK2 [4]): JAK2 and STAT3 were indeed degraded; Expression of ChAT ([5]; choline acetyltransferase): high; Expression of TH ([5]; tyrosine hydroxylase): moderate
